Assay [1] deals with recombinant human Mcl-1 (residues 171-327) / Bim interaction (Homo sapiens (Human), UniProt Q07820). In words: biochemical. Type of assay: binding. The settings on record: read-out: Mcl-1 HTRF IC50. In general terms: Time-resolved FRET reads energy transfer from a long-lived donor to a nearby acceptor.
In assay [2] the test system is human multiple myeloma cell line, OPM-2. In words: Cell viability assay (OPM-2 10 FBS), CellTiter-Glo. Type of assay: cell-based. The method in brief: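 Steps: plate cells at 3000/well in 10% FBS growth medium, add serially diluted compound, incubate 16 h at 37 °C with 5% CO2, add detection reagent and read luminescence after 25 min. A 4-parameter logistic model gives IC50.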

Setting [3] is: TR-FRET, Mcl-1(171-327) / biotin-Bim (51-76).
Setting [4] is: Homo sapiens, OPM-2, 16 h, read-out: OPM-2 10% FBS IC50 IP, OPM-2 cells, 10% FBS, 16 h, CellTiter-Glo.
Setting [5] is: 0.1 nM Mcl-1(171-327), 0.05 nM biotin-Bim (51-76).
[6] abbreviates: Homo sapiens, OPM-2, 16 h, read-out: OPM-2 10% FBS IC50 IP, OPM-2 cells, 10% FBS, 16 h incubation.
The mark [7] stands for this setting: read-out: OPM-2 10% FBS IC50 IP, OPM-2 cells, 10% FBS, 16 h, CellTiter-Glo.

The values below come from patent US10821115B2, “Compounds that inhibit Mcl-1 protein” (priority 2017, dated 2020).

Each structure is given as a SMILES string. Read-outs that look alike come from different tables or passages of the source. A value given as a limit tells only on which side of the number the result lay.

Broadly, the IC50 is the midpoint of a concentration-inhibition curve.

Sequence of recombinant human Mcl-1 (residues 171-327) / Bim interaction (Q07820 171-327): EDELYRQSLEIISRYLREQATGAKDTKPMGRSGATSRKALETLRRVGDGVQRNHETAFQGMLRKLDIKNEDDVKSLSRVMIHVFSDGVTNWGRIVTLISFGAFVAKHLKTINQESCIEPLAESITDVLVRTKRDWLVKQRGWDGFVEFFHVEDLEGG

In the case of `CO[C@@]1([C@H](C)O)/C=C/C[C@H](C)[C@@H](C)S(=O)(=O)NC(=O)c2ccc3c(c2)N(C[C@@H]2CC[C@H]21)C[C@@]1(CCCc2cc(Cl)ccc21)CO3` (single isomer, unassigned) [Example 100486], the IC50 was 0.381 nM in assay [1] (setting [3]) and 102 nM in assay [2] (setting [4]).
Regarding `CO[C@@]1(CN2CCC(N(C)C)CC2)/C=C/C[C@H](C)[C@@H](C)S(=O)(=O)NC(=O)c2ccc3c(c2)N(C[C@@H]2CC[C@H]21)C[C@@]1(CCCc2cc(Cl)ccc21)CO3` [Example 118, (1S,3′R,6′R,7′S,8′E,11′S,12′R)-6-chloro-7′-((4-(dimethylamino)-1-piperidinyl)methyl)-7′-methoxy-11′,12′-dimethyl-3,4-dihydro-2H,15′H-spiro[naphthalene-1,22′-[20]oxa[13]thia[1,14]diazatetracyclo [14.7.2.0~3,6~.0~19,24~]pentacosa[8,16,18,24]tetraen]-15′-one 13′,13′-dioxide], the values for the half-inhibitory concentration (IC50) in assay [1] (setting [5]) and in assay [2] (setting [6]) were 0.215 nM and 558 nM, respectively.
For the compound `CCN(CC)C(=O)C[C@]1(O)CCC[C@H](C)[C@@H](C)S(=O)(=O)NC(=O)c2ccc3c(c2)N(C[C@@H]2CC[C@H]21)C[C@@]1(CCCc2cc(Cl)ccc21)CO3` [Example 100111, 2-((1S,3′R,6′R,7′R,11′S,12′R)-6-chloro-7′-hydroxy-11′,12′-dimethyl-13′,13′-dioxido-15′-oxo-3,4-dihydro-2H-spiro[naphthalene-1,22′-[20]oxa[13]thia[1,14]diazatetracyclo [14.7.2.0~3,6~.0~19,24~]pentacosa[16,18,24]trien]-7′-yl)-N,N-diethylacetamide], the IC50 turned out to be 0.352 nM in assay [1] and 687 nM in assay [2] (setting [7]).
With `CCCN1CCN(C[C@@]2(OCC)/C=C/C[C@H](C)[C@@H](C)S(=O)(=O)NC(=O)c3ccc4c(c3)N(C[C@@H]3CC[C@H]32)C[C@@]2(CCCc3cc(Cl)ccc32)CO4)CC1` [Example 98, (1S,3′R,6′R,7′R,8′E,11′S,12′R)-6-chloro-7′-ethoxy-11′,12′-dimethyl-7′-((4-propyl-1-piperazinyl)methyl)-3,4-dihydro-2H,15′H-spiro[naphthalene-1,22′-[20]oxa[13]thia[1,14]diazatetracyclo [14.7.2.0~3,6~.0~19,24~]pentacosa[8,16,18,24]tetraen]-15′-one 13′,13′-dioxide], the half-maximal inhibitory concentration (IC50) in assay [1] (setting [5]) was determined as 0.373 nM; in assay [2] (setting [6]), 183 nM.
The corresponding values for `CCO[C@]1(CN2CCN3CCOC[C@@H]3C2)/C=C/C[C@H](C)[C@@H](CC2CCC2)S(=O)(=O)NC(=O)c2ccc3c(c2)N(C[C@@H]2CC[C@H]21)C[C@@]1(CCCc2cc(Cl)ccc21)CO3` [Example 45, (1S,3′R,6′R,7′R,8′E,11′S,12′R)-6-chloro-12′-(cyclobutylmethyl)-7′-ethoxy-7′-((9aS)-hexahydropyrazino[2,1-c][1,4]oxazin-8(1H)-ylmethyl)-11′-methyl-3,4-dihydro-2H,15′H-spiro[naphthalene-1,22′-[20]oxa[13]thia[1,14]diazatetracyclo [14.7.2.0~3,6~.0~19,24~]pentacosa[8,16,18,24]tetraen]-15′-one 13′,13′-dioxide] are 0.245 nM and 891 nM.
The matching figures for `C[C@@H]1[C@@H](C)C/C=C/[C@]2(CNCCO2)[C@@H]2CC[C@H]2CN2C[C@@]3(CCCc4cc(Cl)ccc43)COc3ccc(cc32)C(=O)NS1(=O)=O` [Example 134, (1S,3′R,6′R,7′R,8′E,11′S,12′R)-6-chloro-11′,12′-dimethyl-3,4-dihydro-2H,15′H-dispiro[naphthalene-1,22′-[20]oxa[13]thia[1,14]diazatetracyclo [14.7.2.0~3,6~.0~19,24~]pentacosa[8,16,18,24]tetraene-7′,2″-[1,4]oxazinan]-15′-one 13′,13′-dioxide]: 4.64 nM and 3000 nM.
Regarding `C[C@@H]1[C@@H](C)CCC[C@@](O)(CS(=O)(=O)N(C)C(C)(C)C)[C@@H]2CC[C@H]2CN2C[C@@]3(CCCc4cc(Cl)ccc43)COc3ccc(cc32)C(=O)NS1(=O)=O` [Example 100170, 1-((1S,3′R,6′R,7′S,11′S,12′R)-6-chloro-7′-hydroxy-11′,12′-dimethyl-13′,13′-dioxido-15′-oxo-3,4-dihydro-2H-spiro[naphthalene-1,22′-[20]oxa[13]thia[1,14]diazatetracyclo [14.7.2.0~3,6~.0~19,24~]pentacosa[16,18,24]trien]-7′-yl)-N-methyl-N-(2-methyl-2-propanyl)methanesulfonamide], the IC50 in assay [1] (setting [3]) stood at 12.1 nM; in assay [2] (setting [7]), 7820 nM.
In the case of `CO[C@@]1(CC=C(C)C)/C=C/C[C@H](C)[C@@H](C)S(=O)(=O)NC(=O)c2ccc3c(c2)N(C[C@@H]2CC[C@H]21)C[C@@]1(CCCc2cc(Cl)ccc21)CO3` [Example 100447, (1S,3′R,6′R,7′S,8′E,11′S,12′R)-6-chloro-7′-methoxy-11′,12′-dimethyl-7′-(3-methyl-2-buten-1-yl)-3,4-dihydro-2H,15′H-spiro[naphthalene-1,22′-[20]oxa[13]thia[1,14]diazatetracyclo [14.7.2.0~3,6~.0~19,24~]pentacosa[8,16,18,24]tetraen]-15′-one 13′,13′-dioxide], the IC50 was 0.05 nM in assay [1] (setting [3]) and 184 nM in assay [2] (setting [4]).
With `CC[C@@H]1CC/C=C/[C@](CN2CCN3CCCC[C@@H]3C2)(OC)[C@@H]2CC[C@H]2CN2C[C@@]3(CCCc4cc(Cl)ccc43)COc3ccc(cc32)C(=O)NS1(=O)=O` [Example 29, (1S,3′R,6′R,7′S,8′E,12′R)-6-chloro-12′-ethyl-7′-methoxy-7′-((9aR)-octahydro-2H-pyrido[1,2-a]pyrazin-2-ylmethyl)-3,4-dihydro-2H,15′H-spiro[naphthalene-1,22′-[20]oxa[13]thia[1,14]diazatetracyclo [14.7.2.0~3,6~.0~19,24~]pentacosa[8,16,18,24]tetraen]-15′-one 13′,13′-dioxide], the IC50 in assay [1] (setting [5]) was 0.249 nM; in assay [2] (setting [6]), 186 nM.
As to `COCCCN1CCN(C[C@]2(OC)/C=C/C[C@H](C)[C@@H](C)S(=O)(=O)NC(=O)c3ccc4c(c3)N(C[C@@H]3CC[C@H]32)C[C@@]2(CCCc3cc(Cl)ccc32)CO4)CC1` [Example 302, (1S,3′R,6′R,7′S,8′E,11′S,12′R)-6-chloro-7′-methoxy-7′-((4-(3-methoxypropyl)-1-piperazinyl)methyl)-11′,12′-dimethyl-3,4-dihydro-2H,15′H-spiro[naphthalene-1,22′-[20]oxa[13]thia[1,14]diazatetracyclo [14.7.2.0~3,6~.0~19,24~]pentacosa[8,16,18,24]tetraen]-15′-one 13′,13′-dioxide], the IC50 in assay [1] (setting [5]) turned out to be 0.107 nM; in assay [2] (setting [6]), 84 nM.
The corresponding values for `CO[C@@]1(CN2CCC3(CC2)CN(C)C(=O)O3)/C=C/C[C@H](C)[C@@H](C)S(=O)(=O)NC(=O)c2ccc3c(c2)N(C[C@@H]2CC[C@H]21)C[C@@]1(CCCc2cc(Cl)ccc21)CO3` [Example 290, (1S,3′R,6′R,7′S,8′E,11′S,12′R)-6-chloro-7′-methoxy-11′,12′-dimethyl-7′-((3-methyl-2-oxo-1-oxa-3,8-diazaspiro[4.5]dec-8-yl)methyl)-3,4-dihydro-2H,15′H-spiro[naphthalene-1,22′-[20]oxa[13]thia[1,14]diazatetracyclo [14.7.2.0~3,6~.0~19,24~]pentacosa[8,16,18,24]tetraen]-15′-one 13′,13′-dioxide] are 0.215 nM and 149 nM.
The matching figures for `C[C@@H]1[C@@H](C)C/C=C/[C@]2(CN(CC3CCOCC3)CCO2)[C@@H]2CC[C@H]2CN2C[C@@]3(CCCc4cc(Cl)ccc43)COc3ccc(cc32)C(=O)NS1(=O)=O` [Example 135, (1S,3′R,6′R,7′R,8′E,11′S,12′R)-6-chloro-11′,12′-dimethyl-4″- (tetrahydro-2H-pyran-4-ylmethyl)-3,4-dihydro-2H,15′H-dispiro[naphthalene-1,22′-[20]oxa[13]thia[1,14]diazatetracyclo [14.7.2.0~3,6~.0~19,24~]pentacosa[8,16,18,24]tetraene-7′,2″-[1,4]oxazinan]-15′-one 13′,13′-dioxide]: 8.18 nM and over 33300 nM.
The matching figures for `COCCN1CCN(C[C@]2(OC)/C=C/C[C@H](C)[C@@H](C)S(=O)(=O)NC(=O)c3ccc4c(c3)N(C[C@@H]3CC[C@H]32)C[C@@]2(CCCc3cc(Cl)ccc32)CO4)CC1(C)C` [Example 334, (1S,3′R,6′R,7′S,8′E,11′S,12′R)-6-chloro-7′-methoxy-7′-((4-(2-methoxyethyl)-3,3-dimethyl-1-piperazinyl)methyl)-11′,12′-dimethyl-3,4-dihydro-2H,15′H-spiro[naphthalene-1,22′-[20]oxa[13]thia[1,14]diazatetracyclo [14.7.2.0~3,6~.0~19,24~]pentacosa[8,16,18,24]tetraen]-15′-one 13′,13′-dioxide]: 0.186 nM and 159 nM.
On to `C[C@@H]1[C@@H](C)CCC[C@@]2(COC(=O)O2)[C@@H]2CC[C@H]2CN2C[C@@]3(CCCc4cc(Cl)ccc43)COc3ccc(cc32)C(=O)NS1(=O)=O` [Example 100054, (3′R,4S,6′R,11′S,12′R,22′S)-6″-chloro-11′,12′-dimethyl-3″,4″-dihydro-2″H,15′H-dispiro[1,3-dioxolane-4,7′-[20]oxa[13]thia[1,14]diazatetracyclo [14.7.2.0~3,6~.0~19,24~]pentacosa[16,18,24]triene-22′,1″-naphthalene]-2,15′-dione 13′,13′-dioxide], for which the values for the IC50 in assay [1] (setting [3]) and in assay [2] (setting [4]) were 4.11 nM and 9060 nM, respectively.
The matching figures for `COC(OC)c1cncc([C@@]2(O)/C=C/C[C@H](C)[C@@H](C)S(=O)(=O)NC(=O)c3ccc4c(c3)N(C[C@@H]3CC[C@H]32)C[C@@]2(CCCc3cc(Cl)ccc32)CO4)c1` (single isomer, unassigned) [Example 100507]: 0.43 nM and 490 nM.
